The text below walks through data of patent publication US20240238228A1, “COMPOSITIONS AND METHODS FOR TREATING ALLERGIES AND INFLAMMATORY CONDITIONS” (UNIVERSITY OF PITTSBURGH-OF THE COMMONWEALTH SYSTEM OF …, priority 2021, published 2024).

No end group written: not given here.

Assay [1] has as its system calpain. Nature of the assay: Calpain inhibition in cell-free BMMC supernatants pulsed with inhibitor. The format is biochemical, murine. The settings on record: Ac-calpastatin 20 μg/mL, 30 min; mean±SEM from n=3. The procedure:
(§1) Calpain activity was detected from cell-free supernatants using the Calpain-Glo Protease Assay (Promega). Supernatants were incubated with substrate for 10 min prior to luminescent detection. In some experiments, glyburide or vehicle (0.1% DMSO) were added to cells 10 min prior to Ag. ELISA kits from eBioscience (IL-13), BioLegend, (TNF and IL-10) or RayBiotech (NKA) and used in accord with the manufacturer's recommendations.
(§2) To detect early IL-10 release, 4×10^6 cells were incubated in serum free RPMI for a minimum of three hours prior to IgE loading and activation with DNP-HSA (100 ng/mL). Supernatants were collected and IL-10 was detected in accord with manufacturer's recommendations using 1.0% BSA to block and a top standard of 250 pg/mL. The lower limit of detection was 7.8 pg/mL. To evaluate the role of relationship between calpain and IL-10, cell-free supernatants were collected 10 min after activation and incubated with Ac-calpastatin (Ac-Cal; 20 μg/mL, Cayman) or vehicle control. Ac-Cal containing supernatants were further incubated for 30 min prior to IL-10 quantification by ELISA. To directly test IL-10 proteolysis, MCs were activated for 45 min, cell free supernatants were collected and pulsed with recombinant IL-10 (Biolegend, 250 pg/mL).

For assay [2], the system named is IL-10. In words: IL-10 degradation assays on BMMC supernatants. The format is cell-based, murine. The settings on record: supernatants collected 10 min after activation, pulsed with Ac-calpastatin 30 min. The procedure: as §2, with “Ac-Cal containing supernatants were further incubated for 30 min prior to IL-10 quantification by ELISA.” left out
For assay [3], the target named is calpain released into cell-free supernatants by IgE-activated murine BMMCs (murine) (UniProt O35350). Nature of the assay: cell-based or functional assay.
The subject of assay [4] is peanut allergy. Nature of the assay: Peanut allergy desensitization by microneedle arrays. As to conditions: mouse, in vivo. The format is in vivo, mouse.
Assay [5] concerns IL-33. The settings on record: mouse, in vivo.
Assay [6] relates to MCs. As to conditions: previous studies; cited from earlier work.
The subject of assay [7] is NKA. In words: NKA in skin homogenates by ELISA. The format is in vivo, mouse. As to conditions: IL-10 1.0 ng/ear; without PCA induction. On the procedure: as §1
Mouse ears were measured with a micrometer then sensitized with IgE in filter-sterilized PBS (Sigma, clone SPE-7, 20 ng/50 μl/ear) or vehicle control. Twenty-four hours later mice were treated with NKA (10 μg/ear, intradermal) or vehicle (PBS) 3 h prior to Ag (DNP-HSA 100 μg, in 200 μl, intravenous in saline) administration. Data are presented as change in ear thickness between baseline and the indicated time. Where indicated, mice were treated with recombinant murine IL-10 (Peprotech, 1.0 ng/ear) at the time of IgE injection or treated with glyburide (2.5 mg/kg, i.p), 3 h prior to Ag administration.
Cytokine expression in the skin was investigated 24 h after PCA induction. […] Protein concentrations were quantified using the BCA Protein Assay (Pierce). […] Densitometry values subtracting the median background from individual spot areas were calculated with ImageStudioLite v5.2.5. […]
Background: In an ELISA, binding on a coated surface is turned into a signal by an enzyme label.

Assay [8] relates to recombinant murine IL-10. In words: Degradation of recombinant IL-10 by purified calpain (Western blot). The format is biochemical. The settings on record: rIL-10 incubated with increasing concentrations of purified calpain, 60 min. The procedure:
The IL-10 degrading capacity of calpain, recombinant murine IL-10 (Peprotech) was incubated with human calpain I (Athens Research and Technology) for 60 min at 37° C., then denatured with Laemelli Buffer (BioRad) and resolved on 10% Tris-Glycine SDS-PAGE gels (BioRad). Proteins were transferred to […] PVDF membranes (BioRad), blocked for 1 h with Odyssey Blocking Buffer (LI-COR) and probed overnight with goat anti-mouse IL-10 antibody (RnD Systems). Ant-IL10 was detected with donkey anti-goat 800CW (LI-COR) and visualized on a LI-COR Imaging System. Densitometry was calculated using ImageStudioLite v5.2.5 (Licor). Values are presented as (rIL-10+calpain)/rIL-10 alone)*100.
(In general: Immunoblotting shows a protein as a band on a membrane.)

For the molecule “Ac-calpastatin: a calpain inhibitor (Cayman) (Ac-DPMSSTYIEELGKREVTIPPKYRELLA; not fully specified (C-terminus)) [reference compound]”, the “inhibition of calpain activity” value in assay [1] is 20.1±1.72%. For the same molecule, the “IL-10 levels in supernatants from IgE-activated BMMCs” value in assay [2] is recorded as “partially restored”.

Regarding “Ac-calpastatin (Cayman) (from UniProt P20810 184-210) (peptide)”, the calpain activity in assay [3] was determined as 20.1%.

On to botulinum toxin A, for which the “allergy to peanut allergen after CPE challenge” value in assay [4] is reported as “desensitizes”. In addition, the “IL-33 expression in skin” value in assay [5] is recorded as “reduces IL-33 expression”.

For “NKA(4-10): a naturally truncated form of NKA [reference compound]”, the “effect on MCs (β-hexosaminidase or histamine release as readouts)” value in assay [6] is reported as “no effect”.

B1: recombinant IL-10: recombinant murine IL-10 (Peprotech) (protein)
chain: SRGQYSREDNNCTHFPVGQSHMLLELRTAFSQVKTFFQTKDQLDNILLTDSLMQDFKGYLGCQALSEMIQFYLVEVMPQAEKHGPEIKEHLNSLGEKLKTLRMRLRRCHRFLPCENKSKAVEQVKSDFNKLQDQGVYKAMNEFDIFINCIEAYMMIKMKS
Consider B1, for which, in assay [7], the “steady state NKA in skin homogenates” value was “significantly increased”.

B2: calpain: purified human calpain I (Athens Research and Technology), IL-10 degrading cysteine protease (protein)
chain: SEEIITPVYCTGVSAQVQKQRARELGLGRHENAIKYLGQDYEQLRVRCLQSGTLFRDEAFPPVPQSLGYKDLGPNSSKTYGIKWKRPTELLSNPQFIVDGATRTDICQGALGDCWLLAAIASLTLNDTLLHRVVPHGQSFQNGYAGIFHFQLWQFGEWVDVVVDDLLPIKDGKLVFVHSAEGNEFWSALLEKAYAKVNGSYEALSGGSTSEGFEDFTGGVTEWYELRKAPSDLYQIILKALERGSLLGCSIDISSVLDMEAITFKKLVKGHAYSVTGAKQVNYRGQVVSLIRMRNPWGEVEWTGAWSDSSSEWNNVDPYERDQLRVKMEDGEFWMSFRDFMREFTRLEICNLTPDALKSRTIRKWNTTLYEGTWRRGSTAGGCRNYPATFWVNPQFKIRLDETDDPDDYGDRESGCSFVLALMQKHRRRERRFGRDMETIGFAVYEVPPELVGQPAVHLKRDFFLANASRARSEQFINLREVSTRFRLPPGEYVVVPSTFEPNKEGDFVLRFFSEKSAGTVELDDQIQANLPDEQVLSEEEIDENFKALFRQLAGEDMEISVKELRTILNRIISKHKDLRTKGFSLESCRSMVNLMDRDGNGKLGLVEFNILWNRIRNYLSIFRKFDLDKSGSMSAYEMRMAIESAGFKLNKKLYELIITRYSEPDLAVDFDNFVCCLVRLETMFRFFKTLDTDLDGVVTFDLFKWLQLTMFA
On to B2, for which the “amount of IL-10 detected by Western blot” value in assay [8] is on record as “inversely proportional to calpain concentration”.
